Source: ChEMBL document CHEMBL1201862, “PubChem BioAssay data set” (2004)
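Assay format: 96-well plates, 48-hour exposure. GI50 marks 50% less growth.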 The source made the active and inactive calls. No stated cut-off is given here; in the data, active = GI50 up to about 1.1 µM and inactive = higher.

Assays:
Test in all cases: inhibition of tumour cell growth, NCI panel, 48 h
[1] = test system: DLD-1
[2] = test system: XF498
[3] = test system: DMS-273
[4] = test system: HOP-18
[5] = test system: KM-20L2
[6] = test system: LXFL 529
[7] = test system: DMS-114
[8] = test system: M19-MEL
[9] = test system: RXF 631

Measured: GI50

CCC1CN2CCc3cc(OC)c(OC)cc3C2CC1CC1c2cc(OC)c(OC)cc2CCN1C(=O)C1CCCN1C(=O)OCc1ccccc1 (stereo unspecified)
inactive: [1] 15.6 µM | [2] 16.6 µM | [3] 16.3 µM | [4] 23.1 µM | [5] 16.7 µM | [6] 16.3 µM | [7] 13.9 µM | [8] 15.5 µM | [9] 18.5 µM

CCCCCCCCCCCC(=O)OCCOCCOCCOCCOCCOCc1ccc(OC)cc1
inactive: [1] > 100 µM | [3] > 100 µM | [4] > 100 µM | [5] > 100 µM | [6] > 100 µM | [7] > 100 µM | [8] > 100 µM | [9] > 100 µM

COc1ccc(C(=O)C(c2ccc(OC)cc2)C2(O)C(=O)Nc3c2ccc(Cl)c3C)cc1 (stereo unspecified)
inactive: [4] 58.9 µM | [5] > 100 µM | [6] > 100 µM | [7] > 100 µM | [8] > 100 µM | [9] 34.9 µM

c1ccc(C2(c3ccccc3)SSC3(S2)C2CC4CC(C2)CC3C4)cc1 (stereo unspecified)
inactive: [1] > 100 µM | [5] > 100 µM | [6] > 100 µM | [7] > 100 µM

CC(C)(C)C(=O)OCC(COC(=O)C(C)(C)C)[N+](=O)[O-]
inactive: [1] > 100 µM | [2] > 100 µM | [3] > 100 µM | [6] > 100 µM | [7] > 100 µM | [8] > 100 µM

COC1(OC)CC2C(=O)N(Cc3ccccc3)C1C=C2S(=O)(=O)c1ccccc1 (stereo unspecified)
inactive: [1] 12.7 µM | [2] 17.8 µM | [4] 17.1 µM | [5] 18.8 µM | [6] 15.6 µM | [7] 17.2 µM | [8] 16 µM

CC(C)C1CC2C(=O)N(c3ccccc3)C(=O)C2c2[nH]c3ccccc3c21 (stereo unspecified)
inactive: [1] 42.5 µM | [2] 23.3 µM | [3] 9.84 µM | [5] 73.6 µM | [7] 20.4 µM | [8] 56.4 µM

C[C@]12CC[C@@H]3c4ccccc4CC[C@H]3[C@@H]1CC[C@@H]2O
inactive: [1] 72.6 µM | [3] 51.1 µM | [5] 33.8 µM | [6] > 100 µM | [8] 78 µM

CC(=O)Nc1ccc(-c2nnc(SCC(=O)Nc3ccc([N+](=O)[O-])cc3)o2)cc1
inactive: [1] 11.9 µM | [3] 10.6 µM | [4] 16.4 µM | [5] 14.4 µM | [6] 7.93 µM | [7] 3.3 µM | [8] 13.5 µM

N#C/C(=C\c1ccccc1F)C(=O)c1ccccc1
inactive: [2] > 100 µM | [3] > 100 µM | [5] > 100 µM | [6] > 100 µM | [7] > 100 µM | [8] > 100 µM

COc1ccc(OC)c(NC(=O)C(=O)CC(=O)c2sc(-n3nc(-c4ccccc4)cc3-c3ccccc3)nc2C)c1
inactive: [1] > 100 µM | [3] > 100 µM | [5] > 100 µM | [6] > 100 µM | [7] > 100 µM | [8] > 100 µM | [9] > 100 µM
